Here are results for 9 compounds from patent publication US20260159519A1, “IMIDAZOPYRIDAZINE SUBSTITUTED BENZENE RING DERIVATIVE, PREPARATION METHOD, PHARMACEUTICAL COMPOSITION AND USE” (SHANGHAI SIMR BIOTECHNOLOGY CO., LTD., priority 2022, published 2026).

The target of series [1] is T1, human α1-GABAA receptor (α1-GABAAR-HEK293 cells) (Homo sapiens, UniProt P14867+P18507).
T1 construct: expressed in transfected cells
Kind of series: Whole-cell patch-clamp electrophysiology, positive allosteric modulatory activity on α1-GABAA receptor. In kind it is cell-based. The settings on record: read-out: α1-GABAA positive allosteric modulatory activity.

Series [2] has as its target T2, human α2-GABAA receptor (α2-GABAAR-HEK293 cells) (Homo sapiens, UniProt P18507+P47869).
T2 construct: expressed in transfected cells
Kind of series: Whole-cell patch-clamp electrophysiology, positive allosteric modulatory activity on α2-GABAA receptor. It counts as cell-based. The settings on record: read-out: α2-GABAA positive allosteric modulatory activity. A general note: In patch-clamp work, channel activity is measured electrically.

Series [3] concerns the target T3, human α2-GABAA receptor (BZD site, membrane protein of HEK293 cells) (Homo sapiens, UniProt P18507+P47869).
T3 construct: expressed in transfected cells
Kind of series: Radioligand competitive binding assay (3H-flunitrazepam) at the BZD site of the α2-GABAA receptor. The conditions noted are these: competition with 1 nM 3H-flunitrazepam; Ki calculated from IC50; read-out: α2 Ki.

Series [4] relates to Chinese hamster ovary cells (CHO-WBL cells). Kind of series: In vitro micronucleus assay. It counts as cell-based. The settings on record: 3-hour treatment with S9, 3-hour and 24-hour treatment without S9; overall judgment. From the text:
The experimental design is based on the experimental purpose and follows the following experimental design guidelines: • (1) OECD Guidelines for the Testing of Chemicals 487, In Vitro Mammalian Cell Micronucleus Test, revised in 2016; • (2) ICH S2 (R1): Guideline on Genotoxicity Testing and Data Interpretation for Pharmaceuticals Intended for Human Use, validated in November 2011.
Experimental system and selection rationale: Chinese hamster ovary cells (CHO-WBL cells) were used as an experimental system in this experiment. The cell line has a karyotype containing 21 chromosomes and a growth cycle of 12 to 13 hours. CHO-WBL cells were originally derived from Dr. S. Wolff at the University of California in San Francisco, USA, then cloned in the laboratory of Dr. A. Bloom at Columbia University in New York, and cloned again by Dr. S. Galloway at Litton Bionetics Laboratory in Maryland. The cell stock solution was stored in liquid nitrogen. The karyotype of each batch of cell stock solution was identified, and tests confirmed that it was free from mycoplasma contamination. The number of passages after cell cloning will not exceed 15. Chinese hamster ovary cells were chosen because the cell line is recommended for use in OECD Guidelines for the Testing of Chemicals 487 and has been proven to be sensitive to a variety of clastogens/aneugens (Marilyn J. et al., 2006).
Medium and cell growth conditions: Chinese hamster ovary cells were cultured in McCoy's 5A complete medium (McCoy's 5A complete medium supplemented with 10 vt % fetal bovine serum, 2 mM GlutaMAX™ medium, 100 units/mL penicillin, and 100 μg/mL streptomycin), and grown in a standard environment (a high-humidity incubator with a temperature of 37° C. and a CO2 concentration of 5%). The day before administration, CHO-WBL cells in exponential growth phase were inoculated onto an eight-well cell culture slide at a density of 8×10^3 cells/400 μL McCoy's 5A complete medium/well.
Metabolic activation system: The in vitro metabolic activation system (Maron and Ames, 1983) contains a rat liver microsomal homogenate induced by β-naphthoflavone and phenobarbital (referred to as S9) and an NADPH-generating system (i.e., NADP disodium and isocitric acid trisodium). S9 was purchased from CHI Scientific, Inc. and stored in a −75° C. refrigerator prior to use. Preparation method for S9 homogenate: Male Sprague Dawley rats were intraperitoneally injected with a single dose of p-naphthoflavone and phenobarbital, followed by material preparation.
Preparation of S9 metabolic activation system: NADP disodium salt and isocitric acid trisodium salt were first dissolved in serum-free medium to prepare a core solution, which was then filtered through a 0.22 µm filter to sterilize. Immediately before use, the S9 homogenate was thawed, and the components of the S9 metabolic activation system were mixed in the proportions shown in Table 2 below.
Dose exploration experiment: In the dose exploration experiment, 8 administration concentrations were established in each administration treatment series. For each concentration of the test substance, 1 well of cells was set up. According to the ICH S2 (R1) guidelines, when not limited by the solubility of the test substance in the solvent/medium or the cytotoxicity of the test substance, the recommended maximum concentration is 1 mM or 0.5 mg/mL, whichever is lower. However, when limited by solubility, the test maximum concentration is the minimum concentration at which a small amount of precipitate is visible in the medium under the microscope. To ensure that the upper limit of solubility in the medium can be reached, up to 4 concentrations with visible precipitate can be tested.

SMILES strings stand for the structures.

Usually Ki stands for a measure of affinity in units of concentration, obtained from inhibition or displacement. For `CCn1cnc2c(-c3ccc(F)c(-c4cc5cn(C6CCN(C7COC7)CC6)nc5cc4OC)c3)cnnc21` [Example 77, 7-Ethyl-4-(4-fluoro-3-(6-methoxy-2-(1-(oxetan-3-yl)piperidin-4-yl)-2H-indazol-5-yl)phenyl)-7H-imidazo[4,5-c]pyridazine], the activation at 0.1 µM is 66% in series [1] and 104% in series [2]. In addition, the Ki in series [3] was 1.13 nM.
Taken in the same sequence, the figures for `CCn1cnc2c(-c3ccc(F)c(-c4cc5oc(C)nc5cc4OC)c3)cnnc21` [Example 133, 6-(5-(7-Ethyl-7H-imidazo[4,5-c]pyridazin-4-yl)-2-fluorophenyl)-5-methoxy-2-methylbenzo[d]oxazole] were 16%, 130% and 12.7 nM.
Taken in the same sequence, the figures for `CCn1cnc2c(-c3ccc(F)c(-c4cc5cncnc5cc4OC)c3)cnnc21` [Example 164, 6-(5-(7-Ethyl-7H-imidazo[4,5-c]pyridazin-4-yl)-2-fluorophenyl)-7-methoxyquinazoline] were 29%, 122% and 9.24 nM.
Consider `CCn1cnc2c(-c3ccc(F)c(-c4ccc(S(=O)(=O)CC)cc4OC)c3)cnnc21` [CVL-865, reference compound], for which the activation at 0.1 µM in series [1] and in series [2] was 100% in each case. In addition, the “Results of in vitro micronucleus assay” value in series [4] was “Positive”.
On to `CCn1cnc2c(-c3ccc(F)c(-c4cc5ccc(=O)n(C)c5cc4OC)c3)cnnc21` [Example 55, 6-(5-(7-Ethyl-7H-imidazo[4,5-c]pyridazin-4-yl)-2-fluorophenyl)-7-methoxy-1-methylquinolin-2(1H)-one], for which the activation at 0.1 µM in series [1] is 21%; in series [2] it was 81%. Moreover, the Ki in series [3] is 2.43 nM.
The matching figures for `CC[C@H]1Oc2cc(-c3cc(-c4cnnc5c4ncn5CC)ccc3F)c(OC)cc2N(C)C1=O` (single isomer, unassigned) [Example 8]: 79%, 130% and 4.76 nM.
The matching figures for `CCn1cnc2c(-c3ccc(F)c(-c4cc5cn(-c6nccn6C)nc5cc4OC)c3)cnnc21` [Example 78, 7-Ethyl-4-(4-fluoro-3-(6-methoxy-2-(1-methyl-1H-imidazol-2-yl)-2H-indazol-5-yl)phenyl)-7H-imidazo[4,5-c]pyridazine]: 10%, 110% and 3.91 nM.
As for `CCn1cnc2c(-c3ccc(F)c(-c4cc5oc(C6CCOCC6)nc5cc4OC)c3)cnnc21` [Example 93, 6-(5-(7-Ethyl-7H-imidazo[4,5-c]pyridazin-4-yl)-2-fluorophenyl)-5-methoxy-2-(tetrahydro-2H-pyran-4-yl)benzo[d]oxazole], the activation at 0.1 µM in series [1] amounted to 79%; in series [2] it was 115%. Further, the Ki in series [3] was 8.32 nM.
The matching figures for `CCn1cnc2c(-c3ccc(F)c(-c4cc5cnn(C)c5cc4OC)c3)cnnc21` [Example 142, 7-Ethyl-4-(4-fluoro-3-(6-methoxy-1-methyl-1H-indazol-5-yl)phenyl)-7H-imidazo[4,5-c]pyridazine]: 36%, 99% and 4.54 nM.
